Columns and labels:
[1] = tested on: FKBP12 (T7 tagged) binding to TGF-β type I receptor (R4); assay: R4/FKBP12 co-immunoprecipitation competition in transfected COS cells; type: cell-based; conditions: for block of R4/FKBP12 co-immunoprecipitation: 100 nM derivative, COS cells transfected with R4 and T7 tagged FKBP12
Experimental: For testing FKBP12 binding to ligand-free TGF-β type I receptor (either wild type or mutants) by co-immunoprecipitations, COS1 cells grown in P-100 dishes were transfected with 4 μg of T7 tagged FKBP12 in pCMV8 and 6 μg of R4 (or mutant R4) in pCMV6 using the DEAE-dextran method. In the case of using metabolic labeling to detect co-precipitation of FKBP12 and R4, 40-44 hours after transfection COS1 cells were incubated for 4 hours with 50 μCi/ml [^35 S]-methionine in methionine-free media and lysed in lysis buffer (20 mM Tris-HCl [pH 7.4], 150 mM NaCl, 0.5% Triton X-100, 1 mM EDTA) in the presence of a mixture of protease inhibitors. Anti-T7 monoclonal antibody (5 μl) was added into 200 μl of cell lysates, incubated at 4° C. for 2 hours, absorbed with protein A sepharose beads, and washed three times with wash buffer (20 mM Tris-HCl [pH 7.4], 150 mM NaCl, 0.1% Triton X-100, 1 mM EDTA). Proteins were eluted from the sepharose beads using 2× SDS-PAGE denaturing sample buffer, separated on 15% SDS-PAGE. The gel was treated with Autofluor (National Diagnostic), dried and subjected to autoradiography for 48 hours. In the case of using Western blot to detect co-precipitated T7 tagged FKBP12, cell lysates were immunoprecipitated with 10 μl of VPN antiserum, which recognizes a juxtamembrane region of the TGF-β type I receptor (Franzen, P. et al., Cell 75:681-692 (1993)). The immunoprecipitates were separated on 15% SDS-PAGE, electrotransferred onto nitrocellulose membrane, blotted using anti-T7 monoclonal antibody, and detected by ECL (Amersham).
For testing the effect of non-functional FK506 derivatives (L685,818 from Merck Laboratories and 15-O-desmethyl-FK520 from Sandoz) on FKBP12 binding to R4, 2 hours after transfection COS1 cells were treated with the derivatives for […] and then labeled for 4 hours with 50 μCi/ml [^35 S]-methionine in methionine-free media 40-44 hours after transfection. Cells were then lysed and immunoprecipitation was carried out as described above. […]

Mullerian duct = assay: Urogenital ridge organ culture assay (MIS-mediated Mullerian duct regression); design: species or system rat
Experimental: The organ culture assay was carried out as described previously (Donahoe, P. K. et al., J. Surg. Res. 23:141-148 (1977)). Briefly, urogenital ridges containing Wolffian and Mullerian ducts from 14.5 day female rat fetuses were maintained in CMRL media with 10% fetal calf serum, 100 units/ml penicillin, and 100 μg/ml streptomycin. To test the effect of the non-functional derivatives of FK506 (L685,818 or 15-O-desmethyl FK520) on Mullerian duct regression, the specimens were treated with the indicated doses of MIS in the presence or absence of the non-functional derivatives of FK506 and incubated at 37° C. in 5% CO2 and 95% air. After 72 hours, the specimens were fixed in formalin, dehydrated in an alcohol series, cleared in xylene, embedded in paraffin, cut in serial cross sections, stained with hematoxylin and eosin and graded for regression of the Mullerian duct as described (Donahoe, P. K. et al., J. Surg. Res. 23:141-148 (1977)).
Since FKBP12 binds to all known type I receptors, its inhibitory activity should therefore also be detected in the signaling events mediated by other TGF-β family members. Mullerian Inhibiting Substance (MIS) is a unique member of the TGF-β family known to be responsible for regression of the Mullerian duct in fetal males through an active apoptotic process (Jost, A., Arch. Anat. Micro. Morph. Exp. 36:271-315 (1947); Price, J. M. et al., Am. J. Anat. 149:353-376 (1977); Trelstad, R. L. et al., Devl. Bio. 92:27-40 (1982)). The activity of MIS in the regression of the Mullerian ducts can be measured directly in an organ culture assay (Donahoe, P. K. et al., J. Surg. Res. 23:141-148 (1977)). In this assay, urogenital ridges containing both the Wolffian duct and the Mullerian duct are isolated from fourteen and a half day female fetuses. […] When 1 μg MIS was added into the organ culture, grade 1.5 regression was observed, which histologically corresponds to a condensation of the mesenchymal cells surrounding a smaller and irregularly shaped Mullerian duct (FIG. 5, A, top panel). […] We further tested the effect of 1 μM 15-O-desmethyl-FK520 on the regression activities of different doses of MIS (FIG. 5, B).

Mv1Lu cells [2] = assay: Transcriptional response assay (p3TP-lux luciferase reporter); type: cell-based, mink
Excerpt: Two TGF-β responsive mink lung epithelial cell lines Mv1Lu and L17, the latter being a highly transfectable clone of R1B lacking the functional type I receptor of TGF-β, were used in a transcriptional response employing a DEAE-dextran method (Bassing, C. et al., Science 263:87-89 (1994); Wrana, J. L. et al., Nature 370:341-47 (1994)). Briefly, cells grown to 50% confluency in 6-well plates were transiently transfected with the transcriptional response reporter construct p3TP-lux alone or together with different constructs of the type I receptor. Sixteen to twenty hours after transfection, cells were treated with TGF-β in 0.2% serum medium for 24 to 28 hours. For testing the effect of FK506 derivative 15-O-desmethyl FK520, cells were treated with the drug beginning two hours prior to the addition of TGF-β. Cell lysates were made and luciferase activity was measured in a luminometer. Each assay was carried out in duplicate or triplicate.
To distinguish between these possibilities, both 15-O-desmethyl-FK520 and L685,818 were used to test the role of FKBP12 in the signaling events mediated by TGF-β, and yielded very similar results; here we report the results from using 15-O-desmethyl-FK520. […]

Mv1Lu cells [3] = assay: Growth inhibition assay; type: cell-based, mink; conditions: for growth inhibition, macrolide alone: each alone, added to Mv1Lu cells
Experimental: Growth Inhibition Assay Mv1Lu cells were seeded in 12-well plate at 3×10^4 cells/well and incubated overnight. Cells were treated with 15-O-demethyl FK520 for 2 hours and with TGF-β for 36 to 40 hours in the presence of the drug. Cells were trypsinized, and cell numbers were determined in a Coulter counter.
To distinguish between these possibilities, both 15-O-desmethyl-FK520 and L685,818 were used to test the role of FKBP12 in the signaling events mediated by TGF-β, and yielded very similar results; here we report the results from using 15-O-desmethyl-FK520. In the absence of 15-O-desmethyl-FK520, TGF-β elicits two cellular responses when added into the mink lung epithelial cell line Mv1Lu: the growth inhibition response, which can be detected by a decrease in cell number, and the gene activation response, which can be measured by an increase in the luciferase activities resulting from the activation of a transfected luciferase reporter gene regulated by a Plasminogen Activator Inhibitor (PAI) promotor (Wrana, J. L. et al., Cell 71:1003-1014 (1992)). […] Therefore, FKBP12 binding to the TGF-β type I receptor is not necessary, but is inhibitory to the type I receptor mediated signaling, and release of FKBP12 is not sufficient for complete activation of the downstream signaling events in the absence of TGF-β.

FKBP12 = FKBP12 (Homo sapiens, UniProt P62942); conditions: cited from earlier work
[4] = in vivo; cited from earlier work
[5] = target: T1, FKBP12 binding to R4C (cytoplasmic domain of TGF-β type I receptor) (Rattus norvegicus, UniProt Q62658); conditions: excess macrolide, yeast cells; cited from earlier work
T1 construct: host or cells: yeast (two-hybrid)

[6] = tested on: FKBP12 mutant D37G (mFKBP12); conditions: point mutation within the macrolide binding site; cited from earlier work
[7] = target: FKBP12 mutant (G89P, 190K) (Homo sapiens, UniProt P62942, G90P/I91K); conditions: mutations within the 80s loop; cited from earlier work
[8] = macrolide up to 1 μM together with TGF-β 15 pM

FKBP12, sequence (P62942 whole entry): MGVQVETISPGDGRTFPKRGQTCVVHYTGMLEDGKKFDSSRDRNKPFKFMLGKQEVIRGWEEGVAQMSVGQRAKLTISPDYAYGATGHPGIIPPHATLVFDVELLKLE
FKBP12 mutant (G89P, 190K), sequence (P62942 2-108 G90P/I91K limits assumed): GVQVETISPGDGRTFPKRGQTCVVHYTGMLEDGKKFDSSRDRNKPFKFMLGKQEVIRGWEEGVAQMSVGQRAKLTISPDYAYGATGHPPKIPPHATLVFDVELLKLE
T1 sequence (Q62658 whole entry, the tested form may be a part): as the sequence (P62942 whole entry) above, with P10S, M50T, T76I counted along it

| SMILES | block of R4/FKBP12 co-immunoprecipitation [1] | Mullerian duct regression (Mullerian duct; 1 μM macrolide alone, no MIS) | Mullerian duct regression grade (0 no regression to 5 complete regression) (Mullerian duct; 1 μM macrolide together with 1 μg MIS) [grade] | regression activity of 0.1 μg MIS in presence of macrolide (Mullerian duct; 1 μM macrolide with 0.1 μg MIS, compared with 1 μg MIS alone) | gene activation response, macrolide alone (Mv1Lu cells [2]; 1 μM alone, no TGF-β) | TGF-β gene activation response (luciferase activity) (Mv1Lu cells [2]; [8]) | growth inhibition response, macrolide alone (Mv1Lu cells [3]; 1 μM alone, no TGF-β) | TGF-β growth inhibition response (decrease in cell number) (Mv1Lu cells [3]; [8]) | affinity for FKBP12 (FKBP12) | toxicity in animal models [4] | growth inhibition, macrolide alone (Mv1Lu cells [3]) | competition for binding of R4C to FKBP12 [5] | binding to FKBP12 D37G [6] | binding to FKBP12 (G89P, 190K) [7] | block of R4 interaction with FKBP12 ([1]; 50 nM, COS cells, FIG. 4A lane 3) | Mullerian duct regression grade (Mullerian duct; 500 nM macrolide alone) [Grade] | Mullerian duct regression (Mullerian duct; 500 nM macrolide together with 2 μg MIS) |
| --- | --- | --- | --- | --- | --- | --- | --- | --- | --- | --- | --- | --- | --- | --- | --- | --- | --- |
| CC[C@@H]1/C=C(\C)C[C@H](C)C[C@H](O)[C@H]2O[C@@](O)(C(=O)C(=O)N3CCCC[C@H]3C(=O)O[C@H](/C(C)=C/[C@@H]3CC[C@@H](O)[C@H](OC)C3)[C@H](C)[C@@H](O)CC1=O)[C@H](C)C[C@@H]2OC [15-O-desmethyl-FK520] | able to block R4/FKBP12 co-immunoprecipitation | no regression activity was detected | 5 | more biological activity than 1 μg MIS alone | Neither of the responses were detected | greatly enhanced | Neither of the responses were detected | greatly enhanced | binds with high affinity | do not induce toxicity |  |  |  |  |  |  |  |
| C=CC[C@@H]1/C=C(\C)C[C@H](C)C[C@H](OC)[C@H]2O[C@@](O)(C(=O)C(=O)N3CCCC[C@H]3C(=O)O[C@H](/C(C)=C/[C@@H]3CC[C@@H](O)[C@H](OC)C3)[C@H](C)[C@@H](O)CC1=O)[C@H](C)C[C@@H]2OC [FK506] |  |  |  |  |  |  |  |  | bind strongly |  | exhibited growth inhibition activities | could partially compete | abolishes FKBP12 binding | without affecting |  |  |  |
| CC[C@@H]1/C=C(\C)C(O)[C@H](C)C[C@H](OC)[C@H]2O[C@@](O)(C(=O)C(=O)N3CCCC[C@H]3C(=O)O[C@H](/C(C)=C/[C@@H]3CC[C@@H](O)[C@H](OC)C3)[C@H](C)[C@@H](O)CC1=O)[C@H](C)C[C@@H]2OC (stereo partly drawn) [L685,818] | able to block R4/FKBP12 co-immunoprecipitation |  |  |  |  |  |  |  | binds with high affinity | do not induce toxicity |  |  |  |  | block R4 interaction with FKBP12 | 1 | complete regression |
| CO[C@H]1C[C@@H]2CC[C@@H](C)[C@@](O)(O2)C(=O)C(=O)N2CCCC[C@H]2C(=O)O[C@H]([C@H](C)C[C@@H]2CC[C@@H](O)[C@H](OC)C2)CC(=O)[C@H](C)/C=C(\C)[C@@H](O)[C@@H](OC)C(=O)[C@H](C)C[C@H](C)/C=C/C=C/C=C/1C [rapamycin] |  |  |  |  |  |  |  |  | bind strongly |  | exhibited growth inhibition activities |  | abolishes FKBP12 binding |  |  |  |  |

Reference: US5912224A, “Methods and compositions for enhancing cellular response to TGF-β ligands” (priority 1997, dated 1999)
